In ChEMBL document CHEMBL1144587, “Synthesis and antiviral activity of C-fluoro-branched cyclopropyl nucleosides” (Eur J Med Chem, 2007):

Experiments:
Format in all cases: functional, organism-based
Human alphaherpesvirus 2 = experiment: Antiviral activity against HSV2 in CCL81 cells; conditions: Human alphaherpesvirus 2, CCL 81
[1] = system: Human immunodeficiency virus 1; experiment: Antiviral activity against HIV1 in MT4 cells; conditions: Human immunodeficiency virus 1, MT4
Human alphaherpesvirus 1 = experiment: Antiviral activity against HSV1 in CCL81 cells; conditions: Human alphaherpesvirus 1, CCL 81
Human betaherpesvirus 5 = experiment: Antiviral activity against HCMV AD169; conditions: Human betaherpesvirus 5, AD169

Row | Structure (SMILES) | EC50 (Human alphaherpesvirus 2) | EC50 [1] | EC50 (Human alphaherpesvirus 1) | EC50 (Human betaherpesvirus 5)
1 | C[C@]1(CO)C[C@@]1(F)n1ccc(N)nc1=O (racemic) | > 100 µM | 65 µM | > 100 µM | > 100 µM
2 | Nc1nc2c(ncn2COC(CO)CO)c(=O)[nH]1 [GANCICLOVIR] | 1.5 µM | – | 1.5 µM | 1.01 µM
3 | C[C@]1(CO)C[C@]1(F)n1cnc2c(N)ncnc21 (racemic) | > 100 µM | > 100 µM | 67 µM | 71 µM
4 | Cc1cn([C@@]2(F)C[C@]2(C)CO)c(=O)[nH]c1=O (racemic) | > 100 µM | 89 µM | > 100 µM | 51.4 µM
5 | C[C@]1(CO)C[C@@]1(F)n1cnc2c(N)ncnc21 (racemic) | > 100 µM | > 100 µM | 87 µM | > 100 µM
6 | C[C@]1(CO)C[C@]1(F)n1ccc(N)nc1=O (racemic) | > 100 µM | > 100 µM | > 100 µM | > 100 µM
7 | Cc1cn([C@H]2C[C@H](N=[N+]=[N-])[C@@H](CO)O2)c(=O)[nH]c1=O [ZIDOVUDINE] | – | 0.0008 µM | – | –
8 | Cc1cn([C@]2(F)C[C@]2(C)CO)c(=O)[nH]c1=O (racemic) | > 100 µM | 35 µM | > 100 µM | > 100 µM
9 | C[C@]1(CO)C[C@@]1(F)n1ccc(=O)[nH]c1=O (racemic) | > 100 µM | > 100 µM | > 100 µM | 43 µM
10 | C[C@]1(CO)C[C@]1(F)n1ccc(=O)[nH]c1=O (racemic) | > 100 µM | 19.4 µM | > 100 µM | 10.6 µM
